Measurements: patent publication US10815230B2, “Casein kinase 1 delta inhibitor” (ELECTROPHORETICS LIMITED, priority 2015, dated 2020)
Each block holds one molecule with its values, some of them ahead of it.

Columns and labels:
Format in all cases: biochemical
CK1a1 = CK1a1 (Homo sapiens, UniProt P48729); assay: Kinase selectivity, % remaining activity; conditions: CK1a1, 10 μM compound, 10 μM ATP, duplicate
Experimental: (§1) Compounds were tested in single dose duplicate mode at a concentration of 10 μM (in DMSO) and reactions were carried out at 10 μM ATP, Table 3 reports the % of remaining activity (relative to DMSO).

ABL2/ARG = ABL2/ARG (Homo sapiens, UniProt P42684); assay: Kinase selectivity, % remaining activity; conditions: 10 μM compound, 10 μM ATP, duplicate
Experimental: (§2) A two-tier strategy to determine the selectivity of compound A was applied: first, the compound was tested at a single concentration (in duplicate) to determine the %-remaining activity of the target kinase. Subsequently, the IC50 of compound A and comparative compounds for casein kinase 1 delta were determined.
as §1

ALK5/TGFBR1 = biological target: T1, ALK5/TGFBR1 (Homo sapiens, UniProt P36897); assay: Kinase selectivity, % remaining activity; conditions: 10 μM compound, 10 μM ATP, duplicate
T1 sequence (P36897 34-503): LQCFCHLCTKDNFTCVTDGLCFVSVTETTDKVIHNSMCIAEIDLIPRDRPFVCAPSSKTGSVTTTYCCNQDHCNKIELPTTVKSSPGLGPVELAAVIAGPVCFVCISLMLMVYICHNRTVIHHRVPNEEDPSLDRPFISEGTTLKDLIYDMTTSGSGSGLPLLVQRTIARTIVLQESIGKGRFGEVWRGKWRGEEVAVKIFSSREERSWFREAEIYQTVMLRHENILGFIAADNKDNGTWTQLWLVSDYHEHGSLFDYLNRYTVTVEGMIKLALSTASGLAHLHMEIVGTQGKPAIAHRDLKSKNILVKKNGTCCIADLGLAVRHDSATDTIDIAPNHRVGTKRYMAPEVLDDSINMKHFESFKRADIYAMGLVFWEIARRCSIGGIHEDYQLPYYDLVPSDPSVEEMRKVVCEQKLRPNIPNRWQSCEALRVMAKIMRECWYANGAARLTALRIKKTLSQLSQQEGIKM
Experimental: as §2, §1

CDK5/p25 = CDK5/p25 (Homo sapiens, UniProt Q00535); assay: Kinase selectivity, % remaining activity; conditions: 10 μM compound, 10 μM ATP, duplicate
Experimental: as §2, §1

CK1e = CK1e (Homo sapiens, UniProt P49674); assay: Kinase selectivity, % remaining activity; conditions: 10 μM compound, 10 μM ATP, duplicate
Experimental: as §2, §1

CK1g1 = CK1g1 (Homo sapiens, UniProt Q9HCP0); assay: Kinase selectivity, % remaining activity; conditions: 10 μM compound, 10 μM ATP, duplicate
Experimental: as §2, §1

CK1g2 = CK1g2 (Homo sapiens, UniProt P78368); assay: Kinase selectivity, % remaining activity; conditions: 10 μM compound, 10 μM ATP, duplicate
Experimental: as §2, §1

CK1g3 = CK1g3 (Homo sapiens, UniProt Q9Y6M4); assay: Kinase selectivity, % remaining activity; conditions: 10 μM compound, 10 μM ATP, duplicate
Experimental: as §2, §1

CLK2 = CLK2 (Homo sapiens, UniProt P49760); assay: Kinase selectivity, % remaining activity; conditions: 10 μM compound, 10 μM ATP, duplicate
Experimental: as §2, §1

EGFR = EGFR (Homo sapiens, UniProt P00533); assay: Kinase selectivity, % remaining activity; conditions: 10 μM compound, 10 μM ATP, duplicate
Experimental: as §2, §1

EPHA2 = EPHA2 (Homo sapiens, UniProt P29317); assay: Kinase selectivity, % remaining activity; conditions: 10 μM compound, 10 μM ATP, duplicate
Experimental: as §2, §1

FGFR1 = FGFR1 (Homo sapiens, UniProt P11362); assay: Kinase selectivity, % remaining activity; conditions: 10 μM compound, 10 μM ATP, duplicate
Experimental: as §2, §1

GSK3B = GSK3B (Homo sapiens, UniProt P49841); assay: Kinase selectivity, % remaining activity; conditions: 10 μM compound, 10 μM ATP, duplicate
Experimental: as §2, §1

JNK2 = JNK2 (Homo sapiens, UniProt P45984); assay: Kinase selectivity, % remaining activity; conditions: 10 μM compound, 10 μM ATP, duplicate
Experimental: as §2, §1

KDR/VEGFR2 = KDR/VEGFR2 (Homo sapiens, UniProt P35968); assay: Kinase selectivity, % remaining activity; conditions: 10 μM compound, 10 μM ATP, duplicate
Experimental: as §2, §1

LCK = LCK (Homo sapiens, UniProt P06239); assay: Kinase selectivity, % remaining activity; conditions: 10 μM compound, 10 μM ATP, duplicate
Experimental: as §2, §1

MSK1/RPS6KA5 = MSK1/RPS6KA5 (Homo sapiens, UniProt O75582); assay: Kinase selectivity, % remaining activity; conditions: 10 μM compound, 10 μM ATP, duplicate
Experimental: as §2, §1

P38a/MAPK14 = P38a/MAPK14 (Homo sapiens, UniProt Q16539); assay: Kinase selectivity, % remaining activity; conditions: 10 μM compound, 10 μM ATP, duplicate
Experimental: as §2, §1

PDK1/PDPK1 = biological target: T2, PDK1/PDPK1 (Homo sapiens, UniProt O15530); assay: Kinase selectivity, % remaining activity; conditions: 10 μM compound, 10 μM ATP, duplicate
T2 sequence (O15530 1-556): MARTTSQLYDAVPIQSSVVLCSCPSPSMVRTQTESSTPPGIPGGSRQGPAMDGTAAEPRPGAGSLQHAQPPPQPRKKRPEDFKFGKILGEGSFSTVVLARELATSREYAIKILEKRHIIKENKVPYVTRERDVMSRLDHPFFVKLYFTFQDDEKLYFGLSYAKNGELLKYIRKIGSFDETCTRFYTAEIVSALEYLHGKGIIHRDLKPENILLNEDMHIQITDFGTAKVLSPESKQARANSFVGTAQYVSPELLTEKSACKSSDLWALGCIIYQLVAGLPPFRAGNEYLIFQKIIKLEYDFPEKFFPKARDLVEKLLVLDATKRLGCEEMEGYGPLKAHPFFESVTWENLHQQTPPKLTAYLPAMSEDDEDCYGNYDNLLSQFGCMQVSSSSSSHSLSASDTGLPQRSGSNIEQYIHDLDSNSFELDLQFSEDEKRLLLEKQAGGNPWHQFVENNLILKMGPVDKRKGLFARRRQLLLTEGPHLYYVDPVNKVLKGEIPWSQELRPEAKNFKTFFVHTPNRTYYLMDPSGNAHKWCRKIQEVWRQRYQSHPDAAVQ
Experimental: as §2, §1

PIM3 = PIM3 (Homo sapiens, UniProt Q86V86); assay: Kinase selectivity, % remaining activity; conditions: 10 μM compound, 10 μM ATP, duplicate
Experimental: as §2, §1

PKA = PKA (Homo sapiens, UniProt P17612); assay: Kinase selectivity, % remaining activity; conditions: 10 μM compound, 10 μM ATP, duplicate
Experimental: as §2, §1

PKCb2 = PKCb2 (Homo sapiens, UniProt P05771); assay: Kinase selectivity, % remaining activity; conditions: 10 μM compound, 10 μM ATP, duplicate
Experimental: as §2, §1

RIPK2 = RIPK2 (Homo sapiens, UniProt O43353); assay: Kinase selectivity, % remaining activity; conditions: 10 μM compound, 10 μM ATP, duplicate
Experimental: as §2, §1

ROCK1 = ROCK1 (Homo sapiens, UniProt Q13464); assay: Kinase selectivity, % remaining activity; conditions: 10 μM compound, 10 μM ATP, duplicate
Experimental: as §2, §1

TNIK = TNIK (Homo sapiens, UniProt Q9UKE5); assay: Kinase selectivity, % remaining activity; conditions: 10 μM compound, 10 μM ATP, duplicate
Experimental: as §2, §1

YES/YES1 = YES/YES1 (Homo sapiens, UniProt P07947); assay: Kinase selectivity, % remaining activity; conditions: 10 μM compound, 10 μM ATP, duplicate
Experimental: as §2, §1

[1] = biological target: CK1d (casein kinase 1 delta) (Homo sapiens, UniProt P48730); assay: Kinase selectivity, % remaining activity and IC50; conditions: 10 μM ATP; for IC50: casein kinase 1 delta, 10-dose, 3 fold serial dilution
Experimental: as §2, §1
Control compound GW5074 (Tocris®) was tested starting at 20 μM. Reactions were carried out at 10 μM ATP.

[2] = read-out: % of remaining activity (relative to DMSO)

Chain of CK1d (casein kinase 1 delta) (P48730 whole entry): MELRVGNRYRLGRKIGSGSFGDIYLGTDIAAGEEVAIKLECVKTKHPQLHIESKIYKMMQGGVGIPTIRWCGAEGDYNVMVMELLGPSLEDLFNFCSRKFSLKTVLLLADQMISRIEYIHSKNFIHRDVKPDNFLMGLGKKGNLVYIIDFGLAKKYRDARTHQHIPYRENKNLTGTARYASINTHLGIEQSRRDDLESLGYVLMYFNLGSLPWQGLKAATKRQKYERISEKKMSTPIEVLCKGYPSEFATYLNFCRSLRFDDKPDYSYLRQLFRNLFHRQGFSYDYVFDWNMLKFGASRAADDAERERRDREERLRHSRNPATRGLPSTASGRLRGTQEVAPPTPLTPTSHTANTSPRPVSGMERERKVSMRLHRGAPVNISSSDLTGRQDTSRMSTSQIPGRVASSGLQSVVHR
Chain of CLK2 (P49760 whole entry): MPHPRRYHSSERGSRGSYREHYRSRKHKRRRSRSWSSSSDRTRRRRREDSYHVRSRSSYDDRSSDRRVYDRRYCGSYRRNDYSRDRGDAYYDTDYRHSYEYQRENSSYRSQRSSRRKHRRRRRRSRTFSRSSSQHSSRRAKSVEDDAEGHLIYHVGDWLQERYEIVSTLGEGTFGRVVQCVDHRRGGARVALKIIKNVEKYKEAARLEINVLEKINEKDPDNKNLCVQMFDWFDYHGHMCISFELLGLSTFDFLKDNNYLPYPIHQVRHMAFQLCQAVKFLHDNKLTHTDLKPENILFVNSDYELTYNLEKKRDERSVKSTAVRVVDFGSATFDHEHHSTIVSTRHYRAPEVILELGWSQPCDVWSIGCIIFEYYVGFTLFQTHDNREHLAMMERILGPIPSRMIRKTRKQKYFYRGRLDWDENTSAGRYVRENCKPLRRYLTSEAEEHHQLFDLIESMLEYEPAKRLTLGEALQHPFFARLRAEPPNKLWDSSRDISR
Chain of CK1e (P49674 whole entry): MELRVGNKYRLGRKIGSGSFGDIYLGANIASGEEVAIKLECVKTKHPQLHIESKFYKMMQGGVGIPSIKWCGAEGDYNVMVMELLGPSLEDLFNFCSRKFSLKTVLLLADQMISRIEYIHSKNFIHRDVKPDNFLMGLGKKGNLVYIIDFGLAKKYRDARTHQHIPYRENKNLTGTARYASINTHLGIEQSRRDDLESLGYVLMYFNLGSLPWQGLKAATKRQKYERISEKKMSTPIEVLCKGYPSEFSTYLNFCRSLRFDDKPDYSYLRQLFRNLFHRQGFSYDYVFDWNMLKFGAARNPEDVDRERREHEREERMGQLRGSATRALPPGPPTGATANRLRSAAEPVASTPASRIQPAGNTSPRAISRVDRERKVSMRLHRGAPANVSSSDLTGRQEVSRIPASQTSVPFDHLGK
Chain of KDR/VEGFR2 (P35968 20-1356): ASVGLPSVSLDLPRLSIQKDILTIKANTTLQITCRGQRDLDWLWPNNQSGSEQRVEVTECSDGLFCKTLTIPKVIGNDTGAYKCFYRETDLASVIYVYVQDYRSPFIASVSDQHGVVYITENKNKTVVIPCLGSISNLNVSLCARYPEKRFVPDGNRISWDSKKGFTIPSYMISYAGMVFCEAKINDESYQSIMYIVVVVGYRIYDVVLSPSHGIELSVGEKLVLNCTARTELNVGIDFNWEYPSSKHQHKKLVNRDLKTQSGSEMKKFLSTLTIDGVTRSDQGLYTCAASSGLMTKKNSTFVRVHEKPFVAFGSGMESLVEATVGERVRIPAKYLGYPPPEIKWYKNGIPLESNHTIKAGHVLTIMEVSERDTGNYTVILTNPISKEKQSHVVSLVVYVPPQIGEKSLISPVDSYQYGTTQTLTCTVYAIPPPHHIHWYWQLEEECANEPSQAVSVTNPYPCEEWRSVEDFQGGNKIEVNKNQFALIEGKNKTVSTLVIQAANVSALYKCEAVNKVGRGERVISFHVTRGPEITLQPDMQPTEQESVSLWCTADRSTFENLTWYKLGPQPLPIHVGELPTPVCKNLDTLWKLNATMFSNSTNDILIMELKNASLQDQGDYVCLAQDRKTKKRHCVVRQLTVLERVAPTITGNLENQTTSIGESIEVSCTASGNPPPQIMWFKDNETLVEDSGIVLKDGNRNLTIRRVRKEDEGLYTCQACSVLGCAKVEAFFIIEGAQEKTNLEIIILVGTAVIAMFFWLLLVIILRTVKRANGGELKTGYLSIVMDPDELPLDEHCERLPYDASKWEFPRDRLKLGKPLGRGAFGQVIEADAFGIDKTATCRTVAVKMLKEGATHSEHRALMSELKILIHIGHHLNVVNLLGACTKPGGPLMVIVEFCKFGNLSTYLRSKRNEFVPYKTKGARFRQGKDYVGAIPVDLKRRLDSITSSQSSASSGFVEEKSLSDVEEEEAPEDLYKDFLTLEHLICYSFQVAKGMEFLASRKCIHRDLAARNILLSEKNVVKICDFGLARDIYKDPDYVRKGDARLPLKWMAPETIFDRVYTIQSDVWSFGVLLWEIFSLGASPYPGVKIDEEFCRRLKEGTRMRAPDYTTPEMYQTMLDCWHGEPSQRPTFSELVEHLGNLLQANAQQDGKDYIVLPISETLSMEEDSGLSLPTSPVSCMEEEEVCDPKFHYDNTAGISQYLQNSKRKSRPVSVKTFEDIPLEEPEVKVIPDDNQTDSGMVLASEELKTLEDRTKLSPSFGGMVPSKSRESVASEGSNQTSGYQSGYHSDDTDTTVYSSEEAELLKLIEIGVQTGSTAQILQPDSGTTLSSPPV
Chain of LCK (P06239 whole entry): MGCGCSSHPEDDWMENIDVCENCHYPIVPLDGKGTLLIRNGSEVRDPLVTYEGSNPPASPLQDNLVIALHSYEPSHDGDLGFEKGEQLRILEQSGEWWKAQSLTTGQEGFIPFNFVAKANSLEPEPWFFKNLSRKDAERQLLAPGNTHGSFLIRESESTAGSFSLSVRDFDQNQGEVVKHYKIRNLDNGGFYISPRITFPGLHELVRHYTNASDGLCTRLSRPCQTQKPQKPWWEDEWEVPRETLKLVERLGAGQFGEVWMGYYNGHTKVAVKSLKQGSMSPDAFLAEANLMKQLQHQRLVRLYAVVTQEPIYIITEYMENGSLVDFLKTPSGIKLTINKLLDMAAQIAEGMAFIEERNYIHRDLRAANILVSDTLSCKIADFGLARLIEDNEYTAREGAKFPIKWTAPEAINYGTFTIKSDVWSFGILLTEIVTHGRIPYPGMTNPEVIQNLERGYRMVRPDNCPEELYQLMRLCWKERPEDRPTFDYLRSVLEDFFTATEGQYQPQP
Chain of CK1g2 (P78368 whole entry, species assumed): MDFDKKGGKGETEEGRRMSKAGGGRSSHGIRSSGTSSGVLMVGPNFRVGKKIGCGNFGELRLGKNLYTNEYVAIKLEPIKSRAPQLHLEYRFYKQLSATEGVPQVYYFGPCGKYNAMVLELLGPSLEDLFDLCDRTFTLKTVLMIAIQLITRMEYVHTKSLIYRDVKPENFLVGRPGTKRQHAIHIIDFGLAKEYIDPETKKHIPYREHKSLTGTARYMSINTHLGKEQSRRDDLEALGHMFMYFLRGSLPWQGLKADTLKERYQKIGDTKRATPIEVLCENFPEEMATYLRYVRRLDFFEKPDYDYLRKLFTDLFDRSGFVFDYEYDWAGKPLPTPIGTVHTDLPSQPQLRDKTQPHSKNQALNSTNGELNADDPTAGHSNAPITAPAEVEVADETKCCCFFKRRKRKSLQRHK
Chain of EGFR (P00533 25-1210): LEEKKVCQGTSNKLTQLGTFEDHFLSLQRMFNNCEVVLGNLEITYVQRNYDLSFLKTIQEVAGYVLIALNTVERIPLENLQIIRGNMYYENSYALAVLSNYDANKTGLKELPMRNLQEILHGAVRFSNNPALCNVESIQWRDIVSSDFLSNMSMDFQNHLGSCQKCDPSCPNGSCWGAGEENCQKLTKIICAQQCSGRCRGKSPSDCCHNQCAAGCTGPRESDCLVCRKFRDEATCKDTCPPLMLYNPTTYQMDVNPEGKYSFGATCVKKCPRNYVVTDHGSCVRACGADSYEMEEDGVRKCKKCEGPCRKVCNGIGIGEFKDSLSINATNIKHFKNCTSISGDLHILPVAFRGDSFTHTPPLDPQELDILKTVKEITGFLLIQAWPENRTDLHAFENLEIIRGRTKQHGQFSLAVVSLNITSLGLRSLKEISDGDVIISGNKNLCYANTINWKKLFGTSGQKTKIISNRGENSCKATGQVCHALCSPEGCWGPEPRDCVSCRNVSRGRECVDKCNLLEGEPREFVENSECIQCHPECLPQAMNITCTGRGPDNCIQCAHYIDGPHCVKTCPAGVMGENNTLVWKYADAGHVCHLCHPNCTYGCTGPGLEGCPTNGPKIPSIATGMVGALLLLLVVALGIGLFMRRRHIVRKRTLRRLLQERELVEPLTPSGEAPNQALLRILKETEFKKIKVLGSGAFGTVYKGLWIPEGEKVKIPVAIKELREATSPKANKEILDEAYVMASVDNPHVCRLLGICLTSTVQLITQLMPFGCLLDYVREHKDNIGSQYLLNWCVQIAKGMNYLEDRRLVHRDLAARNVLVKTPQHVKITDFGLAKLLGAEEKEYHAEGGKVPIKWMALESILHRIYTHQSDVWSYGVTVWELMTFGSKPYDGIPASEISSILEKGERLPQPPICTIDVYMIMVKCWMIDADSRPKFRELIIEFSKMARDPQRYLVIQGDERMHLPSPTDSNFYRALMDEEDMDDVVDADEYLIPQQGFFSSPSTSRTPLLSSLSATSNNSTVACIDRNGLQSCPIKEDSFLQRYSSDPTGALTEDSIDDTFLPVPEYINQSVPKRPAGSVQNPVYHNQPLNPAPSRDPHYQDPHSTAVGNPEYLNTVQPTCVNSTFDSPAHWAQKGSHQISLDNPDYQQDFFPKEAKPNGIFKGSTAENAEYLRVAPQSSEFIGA

- % of remaining activity (relative to DMSO) (CK1a1; listed as Cmp 987): 17.57%
- remaining activity at 10 µM (CK1a1; [2]): 20.3%
- % of remaining activity (relative to DMSO) (ABL2/ARG; listed as Cmp 987): 83.33%
- remaining activity at 10 µM (ABL2/ARG; [2]): 88.1%
- % of remaining activity (relative to DMSO) (ALK5/TGFBR1; listed as Cmp 987): 37.80%
- remaining activity at 10 µM (ALK5/TGFBR1; [2]): 39.8%
- % of remaining activity (relative to DMSO) (CDK5/p25; listed as Cmp 987): 91.79%
- remaining activity at 10 µM (CDK5/p25; [2]): 98.2%
- % of remaining activity (relative to DMSO) (CK1e; listed as Cmp 987): 18.19%
- remaining activity at 10 µM (CK1e; [2]): 20.1%
- % of remaining activity (relative to DMSO) (CK1g1; listed as Cmp 987): 99.58%
- remaining activity at 10 µM (CK1g1; [2]): 104%
- % of remaining activity (relative to DMSO) (CK1g2; listed as Cmp 987): 78.23%
- remaining activity at 10 µM (CK1g2; [2]): 77.7%
- % of remaining activity (relative to DMSO) (CK1g3; listed as Cmp 987): 97.42%
- remaining activity at 10 µM (CK1g3; [2]): 101%
- % of remaining activity (relative to DMSO) (CLK2; listed as Cmp 987): 72.17%
- remaining activity at 10 µM (CLK2; [2]): 72.7%
- % of remaining activity (relative to DMSO) (EGFR; listed as Cmp 987): 34.51%
- remaining activity at 10 µM (EGFR; [2]): 32%
- % of remaining activity (relative to DMSO) (EPHA2; listed as Cmp 987): 50.05%
- remaining activity at 10 µM (EPHA2; [2]): 49.4%
- % of remaining activity (relative to DMSO) (FGFR1; listed as Cmp 987): 86.54%
- remaining activity at 10 µM (FGFR1; [2]): 78.7%
- % of remaining activity (relative to DMSO) (GSK3B; listed as Cmp 987): 68.98%
- remaining activity at 10 µM (GSK3B; [2]): 70%
- % of remaining activity (relative to DMSO) (JNK2; listed as Cmp 987): 63.80%
- remaining activity at 10 µM (JNK2; [2]): 60%
- % of remaining activity (relative to DMSO) (KDR/VEGFR2; listed as Cmp 987): 83.06%
- remaining activity at 10 µM (KDR/VEGFR2; [2]): 90.3%
- % of remaining activity (relative to DMSO) (LCK; listed as Cmp 987): 58.89%
- remaining activity at 10 µM (LCK; [2]): 63.9%
- % of remaining activity (relative to DMSO) (MSK1/RPS6KA5; listed as Cmp 987): 87.76%
- remaining activity at 10 µM (MSK1/RPS6KA5; [2]): 91.4%
- % of remaining activity (relative to DMSO) (P38a/MAPK14; listed as Cmp 987): 17.83^$ %
- remaining activity at 10 µM (P38a/MAPK14; [2]): 17.6%
- % of remaining activity (relative to DMSO) (PDK1/PDPK1; listed as Cmp 987): 98.31%
- remaining activity at 10 µM (PDK1/PDPK1; [2]): 95%
- % of remaining activity (relative to DMSO) (PIM3; listed as Cmp 987): 75.10%
- remaining activity at 10 µM (PIM3; [2]): 88.8%
- % of remaining activity (relative to DMSO) (PKA; listed as Cmp 987): 33.43%
- remaining activity at 10 µM (PKA; [2]): 36.9%
- % of remaining activity (relative to DMSO) (PKCb2; listed as Cmp 987): 66.13%
- remaining activity at 10 µM (PKCb2; [2]): 73%
- % of remaining activity (relative to DMSO) (RIPK2; listed as Cmp 987): 40.46%
- remaining activity at 10 µM (RIPK2; [2]): 36.3%
- % of remaining activity (relative to DMSO) (ROCK1; listed as Cmp 987): 92.49%
- remaining activity at 10 µM (ROCK1; [2]): 96.9%
- % of remaining activity (relative to DMSO) (TNIK; listed as Cmp 987): 69.49%
- remaining activity at 10 µM (TNIK; [2]): 68.5%
- % of remaining activity (relative to DMSO) (YES/YES1; listed as Cmp 987): 40.00%
- remaining activity at 10 µM (YES/YES1; [2]): 42.8%
- % of remaining activity (relative to DMSO) ([1]; CK1d, 10 μM compound, duplicate, listed as Cmp 987): 5.40%
- remaining activity at 10 µM ([1]; CK1d, 10 μM compound, duplicate, read-out: % of remaining activity (relative to DMSO)): 5.71%
- IC50 [1]: 310 nM
Structure (SMILES): NC(=O)c1c(N)c(C(=O)c2ccc(F)cc2)n2ccccc12 [Comparative Compound 987, 2-amino-3-[(4-fluorophenyl)carbonyl]indolizine-1-carboxamide]

- IC50 [1]: 113 nM
Structure (SMILES): O=C1Nc2ccc(I)cc2/C1=C/c1cc(Br)c(O)c(Br)c1 [GW5074]
